From patent publication US5955479A, “Levobupivacaine for managing chronic pain” (Darwin Discovery Ltd., priority 1993, dated 1999)
Structures can show the parent of a compound that is named as a salt.

Legend:
[1] = Tissue concentrations of bupivacaine enantiomers in sheep post-mortem after increasing bolus doses of racbupivacaine HCl until fatal outcome; format: in vivo
Protocol: (§1) Four sheep weighing 39-49 kg (mean 44, SD 4 kg) were given increasing bolus doses (from 40 mg) of racbupivacaine HCl These were administered at least 1 day apart via a PVC cannula until a fatal outcome resulted. The heart and brain were removed within 20 min of death to be analysed for bupivacaine concentration. The heart was removed by transection through the great vessels approximately 20 mm above the level of the aortic valve, and 20 mm below the caudal border of the right atrium. Blood was immediately expressed from the cardiac chambers, and representative samples of the left and right atrium and ventricle were obtained, blotted and stored frozen (-20° C.) until assay. The brain was removed by transection at the level of the lower border of the pons, blotted and stored frozen as for the heart tissue.
The variability in the fatal doses (80-200 mg) was reflected in the tissue concentrations measured post-mortem. Larger differences in the concentrations of both bupivacaine enantiomers in the atrium and ventricle were apparent.

[2] = chronic epidural and opioid infusions, 0.1 to 0.5% bupivacaine, cancer pain; cited from earlier work
[3] = surgical wound infiltrated before closure, 0.25%; cited from earlier work
[4] = some pain syndromes; cited from earlier work
[5] = Fatal dose of racbupivacaine HCl in sheep (increasing bolus doses until a fatal outcome); format: in vivo
Protocol: as §1

[6] = described in PCT/GB94/02249; cited from earlier work
[7] = Vanhoutte et al (1991); Denson et al (1992); cited from earlier work
[8] = sheep No. 1, fatal dose 80 mg racbupivacaine HCl
[9] = sheep No. 2, fatal dose 80 mg racbupivacaine HCl
[10] = sheep No. 3, fatal dose 200 mg racbupivacaine HCl
[11] = sheep No. 4, fatal dose 200 mg racbupivacaine HCl
[12] = levobupivacaine vs dexbupivacaine

CCCCN1CCCCC1C(=O)Nc1c(C)cccc1C (racemic) [racemic bupivacaine, 1-butyl-N-(2,6-dimethylphenyl)-2-piperidinecarboxamide]
R:S ratio of tissue concentration, Atrium [1, 8]: 0.92
R:S ratio of tissue concentration, Brain [1, 8]: 1.06
R:S ratio of tissue concentration, Ventricle [1, 8]: 1.18
R:S ratio of tissue concentration, Atrium [1, 9]: 1.08
R:S ratio of tissue concentration, Brain [1, 9]: 1.08
R:S ratio of tissue concentration, Ventricle [1, 9]: 1.05
R:S ratio of tissue concentration, Atrium [1, 10]: 0.99
R:S ratio of tissue concentration, Brain [1, 10]: 1.09
R:S ratio of tissue concentration, Ventricle [1, 10]: 1.03
R:S ratio of tissue concentration, Atrium [1, 11]: 1.02
R:S ratio of tissue concentration, Brain [1, 11]: 1.08
R:S ratio of tissue concentration, Ventricle [1, 11]: 1.03
Bupivacaine clearance [2]: progressive reduction in bupivacaine clearance
Control of post-operative pain [3]: effective in the control of post-operative pain
Opioid requirements of patients recovering from herniorrhaphy [3]: reduce the opioid requirements
Analgesic usefulness in chronic administration [4]: useful in chronic administration as an analgesic in some pain syndromes

CCCCN1CCCCC1C(=O)Nc1c(C)cccc1C (racemic) [racbupivacaine HCl]
Fatal doses (variability) ([5]; four sheep, increasing bolus doses): 80 to 200 mg
Fatal dose ([5]; sheep No. 1, increasing bolus doses): 80 mg
Fatal dose ([5]; sheep No. 2, increasing bolus doses): 80 mg
Fatal dose ([5]; sheep No. 3, increasing bolus doses): 200 mg
Fatal dose ([5]; sheep No. 4, increasing bolus doses): 200 mg

CCCCN1CCCC[C@H]1C(=O)Nc1c(C)cccc1C [levobupivacaine]
Accumulation in the heart and brain [1, 12]: does not accumulate in the heart and brain as much as the other component (dexbupivacaine)
Tissue uptake into ventricle and brain vs dexbupivacaine [1, 12]: less tissue uptake of levobupivacaine into ventricle and brain than dexbupivacaine
Clearance ([1]; levobupivacaine vs dexbupivacaine, inferred from tissue uptake): improved clearance
Tissue concentration, Atrium [1, 8]: 6.22 µg/g
Tissue concentration, Brain [1, 8]: 6.53 µg/g
Tissue concentration, Ventricle [1, 8]: 8.44 µg/g
Tissue concentration, Atrium [1, 9]: 3.65 µg/g
Tissue concentration, Brain [1, 9]: 4.59 µg/g
Tissue concentration, Ventricle [1, 9]: 7.36 µg/g
Tissue concentration, Atrium [1, 10]: 18.0 µg/g
Tissue concentration, Brain [1, 10]: 11.7 µg/g
Tissue concentration, Ventricle [1, 10]: 44.1 µg/g
Tissue concentration, Atrium [1, 11]: 21.2 µg/g
Tissue concentration, Brain [1, 11]: 16.3 µg/g
Tissue concentration, Ventricle [1, 11]: 33.3 µg/g
Cardiodepressant effect relative to racemic bupivacaine [6]: reduced cardiodepressant effect
Cardiotoxicity relative to dexbupivacaine and racemic bupivacaine [7]: probably less cardiotoxic than dexbupivacaine and racemic bupivacaine

CCCCN1CCCC[C@@H]1C(=O)Nc1c(C)cccc1C [dexbupivacaine]
Uptake of enantiomers by ventricle and brain ([1]; both P=0.03 by the Students paired t test, four sheep): more (+)-(R)- than (-)-(S)-bupivacaine being taken up by these tissues
Uptake of enantiomers by atrium ([1]; four sheep, difference R vs S): This was not so for the atrium
Tissue concentration, Atrium [1, 8]: 5.70 µg/g
Tissue concentration, Brain [1, 8]: 6.91 µg/g
Tissue concentration, Ventricle [1, 8]: 9.93 µg/g
Tissue concentration, Atrium [1, 9]: 3.94 µg/g
Tissue concentration, Brain [1, 9]: 4.97 µg/g
Tissue concentration, Ventricle [1, 9]: 7.70 µg/g
Tissue concentration, Atrium [1, 10]: 17.9 µg/g
Tissue concentration, Brain [1, 10]: 12.7 µg/g
Tissue concentration, Ventricle [1, 10]: 45.6 µg/g
Tissue concentration, Atrium [1, 11]: 21.5 µg/g
Tissue concentration, Brain [1, 11]: 17.2 µg/g
Tissue concentration, Ventricle [1, 11]: 34.1 µg/g
